# Test results reported in patent US20230097253A1, “NOVEL QUINAZOLINE COMPOUND AS THERAPEUTIC AGENT FOR METABOLIC DISORDERS” (BIOWAY., INC, priority 2020, published 2023).
# What was measured:
# [1] = test system: Huh7 cells induced with inflammatory response; assay: Gene expression in liver cells induced with inflammatory response (qRT-PCR); type: cell-based; settings: Huh7 cells pretreated with IL-1β; 0.5, 2.5, 10 μM; FIG. 11, FIG. 12
# Description: After culturing the Huh-7 cells to grow to a confluency of 80-90% in a 6 well plate, except for the control, the cells were pretreated with IL-1β and then treated with BW-3290, which is the compound of the present invention, diluted in the culture medium to concentrations of 0.5 μM, 2.5 μM, and 10 μM, so as to induce an inflammatory response.
# Additionally, the total RNA was extracted using the RNeasy RNA isolation kit (Qiagen, Hilden, Germany).
# Additionally, 10 μL of […] per mL of a cell lysis solution was additionally prepared.
# Additionally, the cells were washed twice with cold PBS and 350 μL of RNA lysis buffer was added thereto.
# Additionally, 70% EtOH was added to the lysate in an equal volume, mixed by pipetting, transferred to a spin column, and centrifuged at 8,000×g for 15 seconds.
# Additionally, the flow-through solution was removed and 700 μL of a wash solution was added to the spin column, centrifuged at 8,000×g, and the flow-through solution was removed.
# Additionally, 500 μL of the wash buffer containing EtOH was added to the spin column and centrifuged at 8,000×g for 2 minutes (repeated 2 times)
# Additionally, the flow-through solution was discarded and centrifuged once more to completely dry the spin column membrane.
# Additionally, the spin column was placed into a new Eppendorf tube and 50 μL of RNase-free water was added directly to the spin column membrane and centrifuged at 8,000×g for 1 minute to dissolve and isolate the RNA.
# Additionally, RNA concentration was measured at OD 260 nm using the Nanophotometer N60 (Implen, Munich, Germany)
# Additionally, 1 μg of total RNA was reverse transcribed in the first strand synthesis buffer containing oligo (dT) primer (6 μg/mL), random primer (3 μg/mL), 50 U of reverse transcriptase, 4 mM dNTP, […], 5 mM magnesium chloride (MgCl2), and 40 U of RNase inhibitor.
# Additionally, cDNA was synthesized using a polymerase chain reaction (PCR) device which was set to undergo denaturation at 95° C. for 5 minutes, cDNA synthesis at 42° C. for 50 minutes, and denaturation at 95° C. for 5 minutes. […]
# [2] = test system: steatosis-induced Huh7 cells; assay: Protein expression for verification of multiple mode regulator, with and without AMPK inhibitor (western blot); type: cell-based
# Description: To induce steatosis in Huh-7 cells in each well except for control cells, the Huh-7 cells were treated with PA bound to 2% BSA at a concentration of 250 μM except for the control, and the control cells were pretreated with 2% BSA without FA.
# […] The control cells and PA treated cells were treated with DMSO. All media were aspirated and the cells were gently washed 3 times with cold PBS.
# A cold lysis buffer containing 150 mM sodium chloride (NaCl), 5 mM ethylenediaminetetraacetic acid (EDTA), pH 8.0, […] 4-(2-hydroxyethyl)-1-piperazineethanesulfonic acid (HEPES), 1% nonylphenoxypolyethoxylethanol (NP-40), 2 μg/mL aprotinin, 1 μM pepstatin A, 10 μM leupeptin, 1 mM sodium fluoride (NaF), 0.2 mM sodium orthovanadate ([…]), and 1 μM phenylmethylsulfonyl fluoride (PMSF) was added thereto.
# A whole cell lysate was collected and gently pipetted at least 10 times to ensure complete lysis. The sample was incubated on ice for 20 minutes and centrifuged 4° C. at 13,000 rpm, for 20 minutes. The supernatant was collected, 5× sodium dodecyl sulfate (SDS) sample buffer containing 50 mM Tris-CI (pH 6.8), 2% SDS, 0.1% bromopheol blue, and 10% glycerol was added to the sample, and boiled at 95° C. for 5 minutes.
# The wells of 10% SDS-polyacrylamide gel electrophoresis (SDS-PAGE) were loaded with the same amount of a protein along with the molecular weight marker. The gel was electrophoresed at 100 V for 30 minutes in an electrophoresis chamber (Bio-Rad Laboratories, Hercules, Calif., USA).
# A polyvinylidene fluoride (PVDF) membrane (MilliporeSigma, Burlington, Mass., USA) was activated with methanol (MeOH) for 1 minute and washed with a transfer buffer containing 25 mM Tris, 190 mM glycine, and 20% MeOH. The gel was placed in the transfer buffer for 10 minutes.
# The transfer sandwich (in the order of paper, gel, membrane, and paper) was assembled and it was checked whether no air bubbles were trapped in the transfer sandwich. […]
# Images were acquired using an ImageQuant LAS 3000 (Fujifilm, Tokyo, Japan). Data were analyzed.
compound,measurement,setting,value
"CC(C)C(Nc1ncnc2nc[nH]c12)c1nc2cccc(Cl)c2c(=O)n1-c1ccccc1 (stereo not drawn) [BW-3290, 2-(1-((7H-purin-6-yl)amino)-2-methylpropyl)-5-chloro-3-phenylquinazolin-4(3H)-one]",gene expression level of IL-6,[1],decreased in a concentration-dependent manner
same,gene expression level of IL-8,[1],decreased in a concentration-dependent manner
same,gene expression level of TNF-α,[1],decreased in a concentration-dependent manner
same,"activity of SIRT1 and AMPK (p-AMPK, p-ACC) when AMPK activity is inhibited","[2]; 250 μM PA, 10 μM compound C (AMPK inhibitor), 10 and 20 μM BW-3290, 24 hours, FIG. 15",increases the activity of SIRT1 and AMPK
same,AMPK protein expression level,"[2]; 0.5, 2.5, 10 μM, FIG. 13",increase in a concentration-dependent manner
same,SIRT1 protein expression level,"[2]; 0.5, 2.5, 10 μM, FIG. 13",increase in a concentration-dependent manner
